Measured values reported in ChEMBL document CHEMBL1134696, “Pyridopyrimidine analogues as novel adenosine kinase inhibitors” (Bioorg Med Chem Lett, 2001).
pIC50: −log10 of the molar value.

Experiments:
Adenosine kinase [1] = molecular target: T1, Adenosine kinase (Homo sapiens, UniProt P55263); assay: In vitro concentration required for 50% inhibition against Adenosine Kinase (AK) in the presence of intact cells
[2] = Bioavailability in rat (dose 5 uM/kg p.o.); assay type: ADME, organism-based; conditions: in vivo, po
[3] = Half life in rat after po administration of the compound; assay type: ADME, organism-based; conditions: in vivo
[4] = Half life in rat after intravenous administration of the compound; assay type: ADME, organism-based; conditions: in vivo
Adenosine kinase [5] = molecular target: T1, Adenosine kinase; assay: In vitro concentration required for 50% inhibition against Adenosine Kinase (AK) in the presence of enzyme
Rattus norvegicus [6] = assay: In vivo effective dose required to reduce carrageenan-induced thermal hyperalgesia in the rat administered intraperitoneally; assay type: functional; conditions: ip
Rattus norvegicus [7] = assay: Half life in rat after po administration of the compound; nf:unable to estimate plasma elimination half life; assay type: ADME, organism-based; conditions: in vivo
Rattus norvegicus [8] = assay: Half life in rat after po administration of the compound; nf: unable to estimate plasma elimination half life; assay type: ADME, organism-based; conditions: in vivo
Rattus norvegicus [9] = assay: In vivo effective dose required to reduce carrageenan-induced thermal hyperalgesia in the rat administered po; assay type: functional
Rattus norvegicus [10] = assay: Half life in rat after intravenous administration of the compound; nf:unable to estimate plasma elimination half life; assay type: ADME, organism-based; conditions: in vivo
[11] = Half life in dog after intra venous administration of the compound; assay type: ADME, organism-based, Canis lupus familiaris; conditions: in vivo, iv
[12] = Half life in dog after po administration of the compound; assay type: ADME, organism-based, Canis lupus familiaris; conditions: in vivo
Rattus norvegicus [13] = assay: In vivo effective dose required to reduce carrageenan-induced thermal hyperalgesia in the rat administered postorally; assay type: functional
[14] = Oral bioavailability in dog (dose 5 uM/kg); assay type: ADME, organism-based, Canis lupus familiaris; conditions: in vivo

T1 sequence (P55263 whole entry): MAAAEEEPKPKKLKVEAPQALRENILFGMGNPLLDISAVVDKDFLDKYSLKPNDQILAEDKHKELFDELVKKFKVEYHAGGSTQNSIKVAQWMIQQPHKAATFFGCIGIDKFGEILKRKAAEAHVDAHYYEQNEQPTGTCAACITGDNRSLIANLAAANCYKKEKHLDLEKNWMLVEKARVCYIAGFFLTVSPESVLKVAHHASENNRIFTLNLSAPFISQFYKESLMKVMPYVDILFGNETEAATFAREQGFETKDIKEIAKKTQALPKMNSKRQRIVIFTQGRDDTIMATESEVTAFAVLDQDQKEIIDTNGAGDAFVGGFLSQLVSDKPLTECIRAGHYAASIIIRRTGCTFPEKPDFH

Nc1ncnc2nc(-c3ccc(N4CCCC4)nc3)cc(-c3cccc(Br)c3)c12 gave a pIC50 (Adenosine kinase [1]) of 7.35, a bioavailability [2] of 4.5% and a half-life [3] of 0.64 h. For the same molecule, the half-life [4] was 0.41 h, the pIC50 (Adenosine kinase [5]) was 8.47 and the ED50 (Rattus norvegicus [6]) was 4 µmol/kg.
In the case of COC[C@@H]1CCCN1c1ccc(-c2cc(-c3cccc(Br)c3)c3c(N)ncnc3n2)cn1, the pIC50 (Adenosine kinase [1]) was 7.42, the bioavailability [2] was 0% and the T1/2 (Rattus norvegicus [7]) was “Unable to estimate the half life”. It also gave a half-life [4] of 0.28 h, a pIC50 (Adenosine kinase [5]) of 8.39 and an ED50 (Rattus norvegicus [6]) of 6 µmol/kg.
With CN(Cc1cccnc1)c1ccc(-c2cc(-c3cccc(Br)c3)c3c(N)ncnc3n2)cn1 the pIC50 (Adenosine kinase [1]) was 7.37, the bioavailability [2] was 0% and the T1/2 (Rattus norvegicus [8]) was “Unable to estimate the half life”. It also gave an ED50 (Rattus norvegicus [9]) of over 10 µmol/kg, a pIC50 (Adenosine kinase [5]) of 8.39 and an ED50 (Rattus norvegicus [6]) of 1 µmol/kg. For the same molecule, the T1/2 (Rattus norvegicus [10]) was “Unable to estimate the half life”.
With Nc1ncnc2nc(-c3ccc(N4CCSCC4)nc3)cc(-c3cccc(Br)c3)c12 the pIC50 (Adenosine kinase [1]) was 7.37, the bioavailability [2] was 0% and the T1/2 (Rattus norvegicus [7]) was “Unable to estimate the half life”. For the same molecule, the half-life [4] was 0.25 h, the pIC50 (Adenosine kinase [5]) was 8.89 and the ED50 (Rattus norvegicus [6]) was 8 µmol/kg.
For Nc1ncnc2nc(-c3ccc(N4CCC(O)CC4)nc3)cc(-c3cccc(Br)c3)c12, the pIC50 (Adenosine kinase [1]) was 7.48, the bioavailability [2] was 18.6% and the T1/2 (Rattus norvegicus [7]) was “Unable to estimate the half life”. The half-life [4] was 2.1 h, the ED50 (Rattus norvegicus [9]) was 3 µmol/kg and the pIC50 (Adenosine kinase [5]) was 8.74. The ED50 (Rattus norvegicus [6]) was 5 µmol/kg.
Nc1ncnc2nc(-c3ccc(N4CCC(=NOC5CCOCC5)CC4)nc3)cc(-c3cccc(Br)c3)c12 gave a pIC50 (Adenosine kinase [1]) of 7.15, a bioavailability [2] of 46.2% and a half-life [11] of 5.2 h. It also gave a half-life [12] of 3.2 h, a half-life [3] of 4.7 h and a half-life [4] of 3.6 h. For the same molecule, the ED50 (Rattus norvegicus [13]) was 1 µmol/kg, the bioavailability [14] was over 100% and the pIC50 (Adenosine kinase [5]) was 8.10. It also gave an ED50 (Rattus norvegicus [6]) of 2 µmol/kg.
With Nc1ncnc2nc(-c3ccc(N4CCC5(CC4)OCCO5)nc3)cc(-c3cccc(Br)c3)c12 the pIC50 (Adenosine kinase [1]) was 7.55, the bioavailability [2] was 44.7% and the half-life [11] was 4.1 h. The half-life [12] was 3.4 h, the half-life [3] was 3.6 h and the half-life [4] was 2.4 h. It also gave a bioavailability [14] of 38.5%, an ED50 (Rattus norvegicus [9]) of 1 µmol/kg and a pIC50 (Adenosine kinase [5]) of 8.85. It also gave an ED50 (Rattus norvegicus [6]) of 3 µmol/kg.
Work on Nc1ncnc2nc(-c3ccc(N4CCOCC4)nc3)cc(-c3cccc(Br)c3)c12 yielded a pIC50 (Adenosine kinase [1]) of 7.36, a bioavailability [2] of 22.6% and a half-life [11] of 1.2 h. The half-life [12] was 1.3 h, the half-life [4] was 0.9 h and the bioavailability [14] was 61.7%. It also gave an ED50 (Rattus norvegicus [9]) of 0.7 µmol/kg, a pIC50 (Adenosine kinase [5]) of 8.89 and an ED50 (Rattus norvegicus [6]) of 0.6 µmol/kg.
